Data taken from article PMC9268168, “Novel Nitric Oxide Donor Dinitroazetidine-Coumarin Hybrids as Potent Anti-Intrahepatic Cholangiocarcinoma Agents” (Molecules, 2022).

Tests used:
[1] = test system: RBE cells; test: Intracellular NO measurement with fluorescent probe DAF-FM DA (flow cytometry); format: cell-based, human; details: 2 μM, 2.5 h; for MFI (fold of RRx-001), intracellular NO: DAF-FM DA
Method: Intracellular NO was measured with 3-amino,4-aminomethyl-2′,7′-diflfluorescein, diacetate (DAF-FM DA, Beyotime, Shanghai, China). In detail, RBE cells in the logarithmic growth phase were collected and spread on 6-well plate at a density of 150,000 per well overnight. The adherent cells were pretreated with 5 μM DAF-FM DA at 37 °C for 20 min and then incubated with RRx-001, compounds 2–6 and 21 for 2.5 h, followed by flow cytometer analysis (BD Accuri C6, Shanghai, China). Cells were washed three times with cold PBS between each step. The experiment was performed three times.

[2] = test system: RBE cell lines; test: cells; details: Homo sapiens, 48 h, read-out: IC50, antiproliferation activities in RBE
[3] = test system: Cyclin B1, PARP and Caspase-3 in RBE cell lines; test: Western blot analysis of cell-cycle- and apoptosis-related proteins; format: cell-based, human; details: 1 and 4 μM
Method: Approximately 2 × 10^5 cells of RBE were seeded in 6-well plates. After treated with compound 3 (1 and 4 μM) for 24 h, cells were lysed with ice-cold RIPA lysis buffer (Beyotime, Shanghai, China) for 30 min and then centrifuged at 12,000 rpm for 10 min at 4 °C. The total protein concentration was determined by BCA protein assay kit (Beyotime, Shanghai, China). Equal amounts (20 μg per load) of protein samples were subjected to 12% SDS-PAGE gel and transferred onto polyvinylidene fluoride (PVDF) membranes (Epizyme Biotech, Shanghai, China), which were then blocked with 5% bovine serum albumin (Ebsdorfelgrund, Hesse, Germany) for 1.5 h and reacted with primary antibodies (1: 1000 diluted) at 4 °C overnight. Subsequently, the PVDF membranes were incubated in the secondary antibody (1: 10,000 diluted) for 2 h at room temperature. ECL chemiluminescent solution was used for color rendering. The antibodies against Cyclin B1, Caspase 3, and PARP were purchased from Cell Signaling Technology. The secondary antibodies conjugated with horseradish peroxidase (HRP) were from AoWei Biology and CST. The protein bands were developed by the chemiluminescent reagents (Meilunbio, Shanghai, China).

[4] = test system: RBE cell lines; test: Cell cycle analysis (PI staining, flow cytometry); format: cell-based, human; details: 1 μM
Method: The experimental cells RBE were cultured and collected when the cells were in good growth state. After digesting with 0.25% trypsin (Beyotime), the cells were collected and centrifuged. The cells were inoculated in petri dishes (Φ = 6 cm) with an inoculation density of 500,000 cells per dish and 3 mL medium per dish. The cells were placed in the incubator, changed to serum-free RPMI 1640 medium after 12 h, left to continue to culture for 12 h, and then compounds were added. Compounds groups with the concentration of 1 μM and control group treated with DMSO were set. The original culture medium was removed, and the compounds were added. After incubation for 16h, the cells were collected and centrifuged at 1000 r for 5 min. The cells were rinsed twice with PBS, and the supernatant was removed by centrifugation. 75% ethanol (1 mL) was added and placed in a refrigerator at −20 °C overnight for cell fixation.
The fixed cells were centrifuged at 2000 r for 5 min, the supernatant was discarded, 1 mL of PBS solution was added, and the supernatant was resuspended and discarded. 0.5 mL of PI staining solution was added to each tube (staining buffer: 20 × PI staining solution: 50 × RNase A = 100:5:2) and stored at room temperature for 30 min in the dark for testing on the flow cytometry.

| SMILES | melting point [°C] | MFI (fold of RRx-001), intracellular NO [1] | IC50 [2] [nM] | other results |
| --- | --- | --- | --- | --- |
| Cc1c(Cc2ccc(F)cc2)c(=O)oc2cc(OCCCCN3CC([N+](=O)[O-])([N+](=O)[O-])C3)ccc12 | 113.3 to 115.1 |  |  |  |
| Cc1cc(=O)oc2cc(OCCN3CC([N+](=O)[O-])([N+](=O)[O-])C3)ccc12 | 91 to 93 |  |  |  |
| Cc1cc(=O)oc2cc(OCCOCC(=O)N3CC([N+](=O)[O-])([N+](=O)[O-])C3)ccc12 | 82.5 to 84.5 |  |  |  |
| Cc1c(Cc2ccc(C(F)(F)F)cc2)c(=O)oc2cc(OCCOCC(=O)N3CC([N+](=O)[O-])([N+](=O)[O-])C3)ccc12 [Compound 2, 7-(2-(2-(3,3-Dinitroazetidin-1-yl)-2-oxoethoxy)ethoxy)-4-methyl-3-(4-(trifluoromethyl)benzyl)-2H-chromen-2-one] | 65.3 to 67 | 0.95 fold of RRx-001 | 1110 |  |
| Cc1c(Cc2ccc(C#N)cc2)c(=O)oc2cc(OCCOCC(=O)N3CC([N+](=O)[O-])([N+](=O)[O-])C3)ccc12 [Compound 3, 4-((7-(2-(2-(3,3-Dinitroazetidin-1-yl)-2-oxoethoxy)ethoxy)-4-methyl-2-oxo-2H-chromen-3-yl)methyl)benzonitrile] | 74.9 to 76.3 | 1.36 fold of RRx-001 | 950 | NO release level in RBE cells (in words) ([1]; compared to RRx-001): highest NO release concentration; expression of PARP, Caspase-3 and Cyclin B1 (Western blotting) [3]: downregulated; cell cycle effect (in words) [4]: arrest the cell cycle at G2/M phase; mean percentage of cells in the G2/M phase ([4]; DMSO control 18%): 23% |
| Cc1c(Cc2ccc(F)cc2)c(=O)oc2cc(OCCOCC(=O)N3CC([N+](=O)[O-])([N+](=O)[O-])C3)ccc12 [Compound 4, 7-(2-(2-(3,3-Dinitroazetidin-1-yl)-2-oxoethoxy)ethoxy)-3-(4-fluorobenzyl)-4-methyl-2H-chromen-2-one] | 70 to 71.9 | 0.86 fold of RRx-001 | 890 |  |
| Cc1c(Cc2ccccc2)c(=O)oc2cc(OCCOCC(=O)N3CC([N+](=O)[O-])([N+](=O)[O-])C3)ccc12 [Compound 5, 3-Benzyl-7-(2-(2-(3,3-dinitroazetidin-1-yl)-2-oxoethoxy)ethoxy)-4-methyl-2H-chromen-2-one] | 82.5 to 84.5 | 0.83 fold of RRx-001 | 710 |  |
| Cc1cc(=O)oc2cc(OCCCCN3CC([N+](=O)[O-])([N+](=O)[O-])C3)ccc12 [Compound 21, 7-(4-(3,3-Dinitroazetidin-1-yl)butoxy)-4-methyl-2H-chromen-2-one] | 85.8 to 87.2 | 1.13 fold of RRx-001 | 1090 |  |
| O=C(CBr)N1CC([N+](=O)[O-])([N+](=O)[O-])C1 [RRx-001, reference compound] |  | 1 fold of RRx-001 | 2000 |  |

Further lines, with some results ahead:

| melting point [°C] | SMILES | MFI (fold of RRx-001), intracellular NO [1] | IC50 [2] [nM] | other results |
| --- | --- | --- | --- | --- |
| 122.5 to 124.1 | Cc1c(Cc2ccc(C#N)cc2)c(=O)oc2cc(OCCN3CC([N+](=O)[O-])([N+](=O)[O-])C3)ccc12 |  |  |  |
| 135.1 to 136.3 | Cc1c(Cc2ccc(C#N)cc2)c(=O)oc2cc(OCCCCN3CC([N+](=O)[O-])([N+](=O)[O-])C3)ccc12 |  |  |  |
| 137.9 to 139.2 | Cc1c(Cc2ccc(F)cc2)c(=O)oc2cc(OCCN3CC([N+](=O)[O-])([N+](=O)[O-])C3)ccc12 |  |  |  |
| 173 to 175 | Cc1c(Cc2ccccc2)c(=O)oc2cc(OCCN3CC([N+](=O)[O-])([N+](=O)[O-])C3)ccc12 |  |  |  |
| 115.1 to 116.8 | Cc1c(Cc2ccccc2)c(=O)oc2cc(OCCCN3CC([N+](=O)[O-])([N+](=O)[O-])C3)ccc12 |  |  |  |
| 78.5 to 79.6 | Cc1cc(=O)oc2cc(OCCCN3CC([N+](=O)[O-])([N+](=O)[O-])C3)ccc12 |  |  |  |
| 98 to 99.8 | Cc1c(Cc2ccc(C(F)(F)F)cc2)c(=O)oc2cc(OCCN3CC([N+](=O)[O-])([N+](=O)[O-])C3)ccc12 |  |  |  |
